Molecular target: T1, oxidase-type xanthine oxidoreductase (from buttermilk) (Bos taurus, UniProt P80457)
T1 construct: purchased Calbiochem Novabiochem Corp; host or cells: buttermilk (natural source)
Assay: xanthine oxidase inhibitory activity (change of absorbance at 290 nm)
Format: biochemical
Conditions: xanthine substrate, read-out: Inhibitor Activity
Method: Test compound was dissolved in DMSO (manufactured by Sigma Co.) to prepare a 20 mM solution. The solution was adjusted to an optimal concentration and used for the testing.
This evaluation was carried out by measuring oxidase-type xanthine oxidoreductase activity. Concretely, a xanthine (manufactured by Sigma Co.) solution was prepared at 10 mM using a 20 mM sodium hydroxide solution and then mixed with 100 mM phosphate buffer to adjusted to 30 μM. 75 μL of the solution was added to each well of the 96-well plate. The test compound diluted with DMSO at 100 times of a final concentration was added to each well at 1.5 μL per well. […] Immediately after mixing, the change of absorbance at 290 nm was measured for 5 minutes. The enzyme activity of DMSO solution without test compound was used as 100% control, and the inhibitory rate of the test compounds was calculated. Fifty percent inhibitory concentration of the test compounds on the oxidase-type xanthine oxidoreductase activity was calculated by fitting to the dose-response curve.

T1 sequence (P80457 whole entry): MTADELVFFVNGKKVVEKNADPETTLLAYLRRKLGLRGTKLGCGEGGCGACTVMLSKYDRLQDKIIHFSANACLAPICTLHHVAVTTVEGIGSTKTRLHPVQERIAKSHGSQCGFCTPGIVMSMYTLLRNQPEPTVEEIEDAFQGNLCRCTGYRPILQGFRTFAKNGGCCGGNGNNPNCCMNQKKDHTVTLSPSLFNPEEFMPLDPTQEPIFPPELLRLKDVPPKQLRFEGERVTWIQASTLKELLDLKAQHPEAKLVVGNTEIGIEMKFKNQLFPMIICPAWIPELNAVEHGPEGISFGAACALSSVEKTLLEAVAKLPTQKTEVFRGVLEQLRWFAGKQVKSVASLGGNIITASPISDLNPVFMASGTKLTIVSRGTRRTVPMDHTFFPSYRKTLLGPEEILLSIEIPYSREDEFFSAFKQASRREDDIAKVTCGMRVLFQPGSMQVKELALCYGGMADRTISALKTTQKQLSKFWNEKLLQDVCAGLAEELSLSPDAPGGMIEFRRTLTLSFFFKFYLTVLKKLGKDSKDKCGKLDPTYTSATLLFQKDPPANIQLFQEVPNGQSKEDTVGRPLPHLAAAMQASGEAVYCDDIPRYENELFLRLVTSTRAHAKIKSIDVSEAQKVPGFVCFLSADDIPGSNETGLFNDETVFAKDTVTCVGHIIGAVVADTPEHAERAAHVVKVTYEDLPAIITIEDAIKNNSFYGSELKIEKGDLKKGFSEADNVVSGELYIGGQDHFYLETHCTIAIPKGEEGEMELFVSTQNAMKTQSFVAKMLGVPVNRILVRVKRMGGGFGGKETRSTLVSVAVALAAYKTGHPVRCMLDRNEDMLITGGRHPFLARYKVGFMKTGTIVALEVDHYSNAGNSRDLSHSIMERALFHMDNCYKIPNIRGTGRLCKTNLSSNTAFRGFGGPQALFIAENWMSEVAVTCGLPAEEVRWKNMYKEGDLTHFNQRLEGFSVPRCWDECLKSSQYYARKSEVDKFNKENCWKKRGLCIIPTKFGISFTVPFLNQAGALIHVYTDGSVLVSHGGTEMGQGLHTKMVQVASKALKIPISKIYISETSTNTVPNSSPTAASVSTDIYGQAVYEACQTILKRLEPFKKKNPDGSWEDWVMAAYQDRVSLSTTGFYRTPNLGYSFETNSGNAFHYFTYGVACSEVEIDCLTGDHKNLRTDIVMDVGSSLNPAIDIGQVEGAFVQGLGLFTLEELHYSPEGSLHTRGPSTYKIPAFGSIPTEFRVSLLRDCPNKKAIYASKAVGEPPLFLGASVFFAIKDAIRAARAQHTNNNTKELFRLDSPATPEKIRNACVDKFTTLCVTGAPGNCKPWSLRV

First: Cc1nc(-c2ccc(OCC(C)C)c(-n3ccnc3)c2)sc1C(=O)O [Compound No. 1, 2-[3-(1H-imidazol-1-yl)-4-(2-methylpropoxy)phenyl]-4-methyl-1,3-thiazole-5-carboxylic acid]
Second: Cc1nc(-c2ccc(OCC(C)(C)C)c(-n3ccnc3)c2)sc1C(=O)O [Compound No. 2, 2-[4-(2,2-dimethylpropoxy)-3-(1H-imidazol-1-yl)phenyl]-4-methyl-1,3-thiazole-5-carboxylic acid]
The IC50 of the first is lower: 1 to 5 nM for the first, 5 to 10 nM for the second. The first is the more potent here.

Cc1nc(-c2ccc(OCC3CCC3)c(-n3ccnc3)c2)sc1C(=O)O [Compound No. 3, 2-[4-(cyclobutylmethoxy)-3-(1H-imidazol-1-yl)phenyl]-4-methyl-1,3-thiazole-5-carboxylic acid] and Cc1nc(-c2ccc(OCC3CCCC3)c(-n3ccnc3)c2)sc1C(=O)O [Compound No. 4, 2-[4-(cyclopentylmethoxy)-3-(1H-imidazol-1-yl)phenyl]-4-methyl-1,3-thiazole-5-carboxylic acid] fall in the same range of IC50: 5 to 10 nM for the first, 5 to 10 nM for the second.

Cc1nc(-c2ccc(OC3CCCC3)c(-n3ccnc3)c2)sc1C(=O)O [Compound No. 5, 2-[4-(cyclopentyloxy)-3-(1H-imidazol-1-yl)phenyl]-4-methyl-1,3-thiazole-5-carboxylic acid] and Cc1nc(-c2ccc(OC3CCCCC3)c(-n3ccnc3)c2)sc1C(=O)O [compound 6, 2-[4-(cyclohexyloxy)-3-[1H-imidazol-1-yl)phenyl]-4-methyl-1,3-thiazole-5-carboxylic acid] fall in the same range of IC50: 5 to 10 nM for the first, 5 to 10 nM for the second.

Cc1nc(-c2ccc(Oc3ccccc3)c(-n3ccnc3)c2)sc1C(=O)O [Compound No. 7, 2-[3-(1H-imidazol-1-yl)-4-phenoxyphenyl]-4-methyl-1,3-thiazole-5-carboxylic acid] and Cc1nc(-c2ccc(Oc3ccccc3F)c(-n3ccnc3)c2)sc1C(=O)O [Compound No. 8, 2-[4-(2-fluorophenoxy)-3-(1H-imidazol-1-yl)phenyl]-4-methyl-1,3-thiazole-5-carboxylic acid] cannot be ordered by IC50: greater than 10 nM for the first, greater than 10 nM for the second.

Compared with Cc1nc(-c2ccc(Oc3ccccc3)c(-n3cncn3)c2)sc1C(=O)O [Compound No. 15], Cc1nc(-c2ccc(Oc3ccccc3)c(-n3cnnn3)c2)sc1C(=O)O [Compound No. 33, 4-methyl-2-[4-phenoxy-3-(1H-1,2,3,4-tetrazol-1-yl)phenyl]-1,3 thiazole-5-carboxylic acid] is lower in IC50: greater than 10 nM for the first, 1 to 5 nM for the second.

Cc1nc(-c2ccc(OC(C)C)c(-n3ccnn3)c2)sc1C(=O)O [Compound No. 16, 4-methyl-2-[4-(propan-2-yloxy)-3-(1H-1,2,3-triazol-1-yl)phenyl]-1,3-thiazole-5-carboxylic acid] and Cc1nc(-c2ccc(OCC(C)C)c(-n3ccnn3)c2)sc1C(=O)O [compound 17, 4-methyl-2-[4-(2-methylpropoxy)-3-(1H-1,2,3-triazol-1-yl)phenyl]-1,3-thiazole-5-carboxylic acid] fall in the same range of IC50: 1 to 5 nM for the first, 1 to 5 nM for the second.

Cc1nc(-c2ccc(OC(C)C)c(-n3cnnn3)c2)sc1C(=O)O [Compound No. 24, 4-methyl-2-[4-(propan-2-yloxy)-3-(1H-1,2,3,4-tetrazole-1-yl)phenyl]-1,3-thiazole-5-carboxylic acid] and Cc1nc(-c2ccc(OCC(C)CO)c(-n3cnnn3)c2)sc1C(=O)O (stereo not shown) [Compound No. 29, 2-[4-(3-hydroxy-2-methylpropoxy)-3-(1H-1,2,3,4-tetrazol-1-yl)phenyl]-4-methyl-1,3-thiazole-5-carboxylic acid] fall in the same range of IC50: 1 to 5 nM for the first, 1 to 5 nM for the second.

Cc1nc(-c2ccc(OCC(C)(C)O)c(-n3cnnn3)c2)sc1C(=O)O [Compound No. 30, 2-[4-(2-hydroxy-2-methylpropoxy)-3-(1H-1,2,3,4-tetrazol-1-yl)phenyl]-4-methyl-1,3-thiazole-5-carboxylic acid] and Cc1nc(-c2ccc(OCC(C)(C)C)c(-n3cnnn3)c2)sc1C(=O)O [compound 26, 2-[4-(2,2-dimethylpropoxy)-3-(1H-1,2,3,4-tetrazol-1-yl)phenyl]-4-methyl-1,3-thiazole-5-carboxylic acid] fall in the same range of IC50: 1 to 5 nM for the first, 1 to 5 nM for the second.

Cc1nc(-c2ccc(SCC(C)C)c(-n3cnnn3)c2)sc1C(=O)O [Compound No. 49, 4-methyl-2-{4-[(2-methylpropyl)sulfanyl]-3-(1H-1,2,3,4-tetrazol-1-yl)phenyl}-1,3-thiazole-5-carboxylic acid] and CCN(CC)c1ccc(-c2nc(C)c(C(=O)O)s2)cc1-n1cnnn1 [Compound No. 52, 2-[4-(N,N-diethylamino)-3-(1H-1,2,3,4-tetrazol-1-yl)phenyl]-4-methyl-1,3-thiazole-5-carboxylic acid] fall in the same range of IC50: 1 to 5 nM for the first, 1 to 5 nM for the second.

Cc1nc(-c2ccc(N3CCCC3)c(-n3cnnn3)c2)sc1C(=O)O [Compound No. 53, 4-methyl-2-[4-(pyrrolidin-1-yl)-3-(1H-1,2,3,4-tetrazol-1-yl)phenyl]-1,3-thiazole 5-carboxylic acid] and Cc1nc(-c2ccc(OC3CCCC3)c(-n3cnnn3)c2)sc1C(=O)O [compound 28, 2-[4-(cyclopentyloxy)-3-(1H-1,2,3,4-tetrazol-1-yl)phenyl]-4-methyl-1,3-thiazole-5-carboxylic acid] fall in the same range of IC50: 1 to 5 nM for the first, 1 to 5 nM for the second.

Cc1nc(-c2ccc(OCC(C)C)c(-n3ccnc3C)c2)sc1C(=O)O [compound 9, 4-methyl-2-[3-(2-methyl-1H-imidazol-1-yl)-4-(2-methylpropoxy)phenyl]-1,3-thiazole-5-carboxylic acid] and Cc1nc(-c2ccc(OCC(C)C)c(-n3ncnc3C)c2)sc1C(=O)O [compound 14, 4-methyl-2-[3-(5-methyl-1H-1,2,4-triazol-1-yl)-4-(2-methylpropoxy)phenyl]-1,3-thiazole-5-carboxylic acid] fall in the same range of IC50: 1 to 5 nM for the first, 1 to 5 nM for the second.

First: Cc1nc(-c2ccc(OCC(C)C)c(-n3nnnc3C)c2)sc1C(=O)O [compound 10, 4-methyl-2-[3-(5-methyl-1H-1,2,3,4-tetrazol-1-yl)-4-(2-methylpropoxy)phenyl]-1,3-thiazole-5-carboxylic acid]
Second: Cc1ncn(-c2cc(-c3nc(C)c(C(=O)O)s3)ccc2OCC(C)C)n1 [compound 12, 4-methyl-2-[3-(3-methyl-1H-1,2,4-triazol-1-yl)-4-(2-methylpropoxy)phenyl]-1,3-thiazole-5-carboxylic acid]
The IC50 of the first is higher: 5 to 10 nM for the first, 1 to 5 nM for the second.

Cc1nc(-c2ccc(OCC(C)C)c(-n3cnc4ccccc43)c2)sc1C(=O)O [compound 11, 2-[3-(1H-1,3-benzodiazol-1-yl)-4-(2-methylpropoxy)phenyl]-4-methyl-1,3-thiazole-5-carboxylic acid] and Cc1nc(-c2ccc(OCC(C)C)c(-n3cncn3)c2)sc1C(=O)O [compound 13, 4-methyl-2-[4-(2-methylpropoxy)-3-(1H-1,2,4-triazol-1-yl)phenyl]-1,3-thiazole-5-carboxylic acid] fall in the same range of IC50: 1 to 5 nM for the first, 1 to 5 nM for the second.

Cc1nc(-c2ccc(OCC(C)(C)C)c(-n3ccnn3)c2)sc1C(=O)O [compound 18, 2-[4-(2,2-dimethylpropoxy)-3-(1H-1,2,3-triazol-1-yl)phenyl]-4-methyl-1,3-thiazole-5-carboxylic acid] and Cc1nc(-c2ccc(OCC3CCC3)c(-n3ccnn3)c2)sc1C(=O)O [compound 19, 2-[4-(cyclobutylmethoxy)-3-(1H-1,2,3-triazol-1-yl)phenyl]-4-methyl-1,3-thiazole-5-carboxylic acid] fall in the same range of IC50: 1 to 5 nM for the first, 1 to 5 nM for the second.

CC(C)Oc1ccc(-c2ncc(C(=O)O)s2)cc1-n1ccnn1 [compound 20, 2-[4-(propan-2-yloxy)-3-(1H-1,2,3-triazol-1-yl)phenyl]-1,3-thiazole-5-carboxylic acid] and CC(C)COc1ccc(-c2ncc(C(=O)O)s2)cc1-n1ccnn1 [compound 21, 2-[4-(2-methylpropoxy)-3-(1H-1,2,3-triazol-1-yl)phenyl]-1,3-thiazole-5-carboxylic acid] fall in the same range of IC50: 1 to 5 nM for the first, 1 to 5 nM for the second.

First: Cc1nc(-c2ccc(Oc3ccccc3)c(-n3ccnn3)c2)sc1C(=O)O [compound 22, 4-methyl-2-[4-phenoxy-3-(1H-1,2,3-triazol-1-yl)phenyl]-1,3-thiazole-5-carboxylic acid]
Second: Cc1nc(-c2ccc(Oc3ccccc3F)c(-n3cnnn3)c2)sc1C(=O)O [compound 34, 2-[4-(2-fluorophenoxy)-3-(1H-1,2,3,4-tetrazol-1-yl)phenyl]-4-methyl-1,3-thiazole-5-carboxylic acid]
The IC50 of the first is higher: greater than 10 nM for the first, 1 to 5 nM for the second. The second is the more potent here.

Cc1nc(-c2ccc(OCC3CCC3)c(-n3cnnn3)c2)sc1C(=O)O [compound 27, 2-[4-(cyclobutylmethoxy)-3-(1H-1,2,3,4-tetrazol-1-yl)phenyl]-4-methyl-1,3-thiazole-5-carboxylic acid] and Cc1nc(-c2ccc(Oc3c(F)cccc3F)c(-n3cnnn3)c2)sc1C(=O)O [compound 36, 2-[4-(2,6-difluorophenoxy)-3-(1H-1,2,3,4-tetrazol-1-yl)phenyl]-4-methyl-1,3-thiazole-5-carboxylic acid] fall in the same range of IC50: 1 to 5 nM for the first, 1 to 5 nM for the second.

CC(C)Oc1ccc(-c2ncc(C(=O)O)s2)cc1-n1cnnn1 [compound 31, 2-[4-(propan-2-yloxy)-3-(1H-1,2,3,4-tetrazol-1-yl)phenyl]-1,3 thiazole-5-carboxylic acid] and CC(C)COc1ccc(-c2ncc(C(=O)O)s2)cc1-n1cnnn1 [compound 32, 2-[4-(2-methylpropoxy)-3-(1H-1,2,3,4-tetrazol-1-yl)phenyl]-1,3 thiazole-5-carboxylic acid] fall in the same range of IC50: 1 to 5 nM for the first, 1 to 5 nM for the second.

With COc1ccccc1Oc1ccc(-c2nc(C)c(C(=O)O)s2)cc1-n1cnnn1 [compound 35, 2-[4-(2-methoxyphenoxy)-3-(1H-1,2,3,4-tetrazol-1-yl)phenyl]-4-methyl-1,3-thiazole-5-carboxylic acid] the IC50 was 1 to 5 nM.

Reference: patent US9388174B2, “Azole benzene derivative” (TEIJIN PHARMA LIMITED, priority 2013, dated 2016)
